Results from US20220289698A1, “INHIBITORS OF HUMAN ATGL” (Karl-Franzens-Universität Graz, priority 2019, published 2022).
Where two headings read alike, the source gives them in different places.

Tests used:
human ATGL = target: T1, human ATGL (Homo sapiens, UniProt Q96AD5); assay: TG hydrolase activity, Expi cell lysates expressing human ATGL + CGI-58, radiolabelled triolein; format: biochemical
T1 construct: made in house; host or cells: Expi cells (lysate, not purified)
T1 sequence (Q96AD5 1-504): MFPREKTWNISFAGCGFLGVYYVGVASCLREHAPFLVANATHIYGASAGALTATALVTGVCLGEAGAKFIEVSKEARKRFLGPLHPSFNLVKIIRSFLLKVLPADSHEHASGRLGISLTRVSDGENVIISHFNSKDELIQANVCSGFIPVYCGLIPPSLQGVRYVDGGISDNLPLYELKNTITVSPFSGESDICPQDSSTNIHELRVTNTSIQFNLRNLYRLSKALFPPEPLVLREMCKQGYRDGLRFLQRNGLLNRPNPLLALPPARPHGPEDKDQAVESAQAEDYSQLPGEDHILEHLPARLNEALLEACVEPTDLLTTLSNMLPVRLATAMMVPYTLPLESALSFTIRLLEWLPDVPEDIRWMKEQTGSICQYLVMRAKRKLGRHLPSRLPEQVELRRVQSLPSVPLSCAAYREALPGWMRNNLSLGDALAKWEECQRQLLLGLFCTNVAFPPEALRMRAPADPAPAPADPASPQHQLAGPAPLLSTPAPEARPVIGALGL
In short: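 Lysates of Expi cells expressing ATGL, supplemented with purified CGI-58 and inhibitor in DMSO, incubated 1 h at 37 °C with emulsified radiolabelled triolein (330 μM) in potassium phosphate pH 7.0 with 5% FA-free BSA. Released FA counted by liquid scintillation after phase extraction; IC50 versus DMSO control, duplicates.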

murine ATGL = target: T2, murine ATGL (Mus musculus, UniProt Q8BJ56); assay: TG hydrolase activity, Expi lysates expressing mouse ATGL + CGI-58, radiolabelled triolein; format: biochemical
T2 construct: made in house; host or cells: Expi cells (lysate)
T2 sequence (Q8BJ56 1-486): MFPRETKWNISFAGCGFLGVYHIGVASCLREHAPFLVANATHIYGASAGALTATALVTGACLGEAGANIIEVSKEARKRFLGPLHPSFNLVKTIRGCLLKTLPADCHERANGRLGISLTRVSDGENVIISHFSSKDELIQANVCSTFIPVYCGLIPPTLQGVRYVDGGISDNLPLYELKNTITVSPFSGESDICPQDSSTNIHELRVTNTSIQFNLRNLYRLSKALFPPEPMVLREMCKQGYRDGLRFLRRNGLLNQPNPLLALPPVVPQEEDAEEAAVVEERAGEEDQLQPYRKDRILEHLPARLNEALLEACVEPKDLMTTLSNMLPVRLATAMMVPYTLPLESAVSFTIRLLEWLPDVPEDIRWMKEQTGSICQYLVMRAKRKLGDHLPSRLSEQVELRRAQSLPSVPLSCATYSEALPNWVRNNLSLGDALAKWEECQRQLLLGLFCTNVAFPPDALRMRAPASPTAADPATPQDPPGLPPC
In short: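 Lysates of Expi cells overexpressing mouse ATGL, with added recombinant CGI-58, were incubated with inhibitor at 50 μM. Substrate was emulsified radiolabelled triolein with PC/PI in 100 mM potassium phosphate pH 7.0 and 5% FA-free BSA, 1 h at 37° C. Released FA were extracted and counted by scintillation; triplicates, DMSO control.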

[1] = Example 237, read-out: Inhibition of human ATGL − IC50
[2] = 50 μM compound, Example 237, read-out: Inhibition of murine ATGL at 50 μM − mean [%]
[3] = Example 238, read-out: Inhibition of human ATGL IC50
[4] = 50 μM, Example 238, read-out: % Inhibition of murine ATGL at 50 μM

| Compound | IC50 (human ATGL; [1]) [µM] | inhibition at 50 µM (murine ATGL; [2]) [%] | melting point [°C] | IC50 (human ATGL; [3]) [µM] | inhibition at 50 µM (murine ATGL; [4]) [%] |
| --- | --- | --- | --- | --- | --- |
| CC(C)OC(=O)c1cccc(-c2ccc(-c3nc4ccccc4n3-c3ccccc3)cc2)n1 [Example 84] | 10 | 0 | 172 to 176 |  |  |
| CCOC(=O)c1cccc(-c2ccc(C#N)cc2)n1 [Example 88] | 25 | 0 | 108 to 109 |  |  |
| CC(=O)Oc1ccc(-c2cccc(C(=O)OC(C)C)n2)cc1 [Example 23] | 15 | 16 | 71 to 75 |  |  |
| CCS(=O)(=O)c1ccc(-c2cccc(C(=O)OC(C)C)n2)cc1 [Example 18] | 10 | 0 | 126 to 129 |  |  |
| CCOC(=O)c1cc(C)cc(-c2ccc(OCC)cc2)n1 [Example 14] | 10 | 6.1 | 90 to 91 |  |  |
| COc1cc(C(=O)OC(C)C)nc(-c2ccc(C(F)(F)F)cc2)c1 [Example 58] | 7 | 0 | 55 to 56 |  |  |
| CCCc1ccc(-c2cccc(C(=O)OCC)n2)cc1 [Example 66] | 10 |  | 68 to 69 |  |  |
| CCOC(=O)c1csc(-c2ccc(OCc3ccccc3)cc2)n1 [Example 187, Ethyl 2-(4-(benzyloxy)phenyl)thiazole-4-carboxylate] | 15 | 10.2 | 112 to 115 |  |  |
| CCCCCCOc1ccc(-c2cccc(C(=O)OC)n2)cc1 [Example 89] | 25 | 0 | 68 to 69 |  |  |
| CCOC(=O)c1cccc(-c2ccc(OCCOC)cc2)n1 [Example 8] | 10 | 9.1 | 89 to 94 |  |  |
| CCCCOC(=O)c1cccc(-c2ccc(OCC)cc2)n1 [Example 2] | 20 | 5.9 | 78 to 81 |  |  |
| CC(C)OC(=O)c1cccc(-c2ccc(OC3CCCCO3)cc2)n1 (stereo not shown) [Example 36] | 8 | 9.6 | 105 to 107 |  |  |
| CCCOC(=O)c1cccc(-c2ccc(OCC)cc2)n1 [Example 31] | 12 | 6 | 80 to 84 |  |  |
| CC(C)OC(=O)c1cccc(-c2ccc(OC(F)(F)F)cc2)n1 [Example 37] | 10 | 22.8 | 43 to 47 |  |  |
| CCOc1ccc(-c2cccc(C(=O)OCc3ccoc3)n2)cc1 [Example 198, Furan-3-ylmethyl 6-(4-ethoxyphenyl)picolinate] |  |  | 97 to 101 | 20 | 82 |
| CCOc1ccc(-c2cc(OC)cc(C(=O)OC)n2)cc1 [Example 26] | 12 | 23.1 | 94 to 103 |  |  |
| CC(C)OC(=O)c1cccc(-c2ccc(CO)cc2)n1 [Example 12] | 25 | 0 | 129 to 131 |  |  |
| C#CCOC(=O)c1cccc(-c2ccc(OCC)cc2)n1 [Example 51] | 15 | 31.8 | 76 to 78 |  |  |
| COc1ccc(-c2cc(OC)cc(C(=O)OC(C)C)n2)cc1 [Example 206, Isopropyl 4-methoxy-6-(4-methoxyphenyl)picolinate] |  |  | 59 to 61 | 5 |  |
| CC(C)OC(=O)c1cccc(/C=C/c2ccccc2)n1 [Example 76] | 10 | 5.1 | 66 to 71 |  |  |
| COc1cc(C(=O)OC(C)C)nc(-c2ccc(-c3cccnc3)cc2)c1 [Example 65] | 6 |  | 118 to 121 |  |  |
| CCOc1ccc(-c2cccc(C(=O)OC(C)CC)n2)cc1 (stereo not shown) [Example 30] | 8 | 0 | 49 to 51 |  |  |
| CCOc1ccc(-c2cccc(C(=O)OC(C)(C)C)n2)cc1 [Example 28] | 12 | 0 | 69 to 73 |  |  |
| CCOc1ccc(-c2cccc(C(=O)OCc3ccsc3)n2)cc1 [Example 197, Thiophen-3-ylmethyl 6-(4-ethoxyphenyl)picolinate] |  |  | 90 to 93 | 30 | 75 |
| COCc1ccc(-c2cc(OC)cc(C(=O)OC)n2)cc1 [Example 40] | 10 |  | 65 to 68 |  |  |
| [2H]C([2H])([2H])C([2H])(OC(=O)c1cc(OC)cc(-c2ccc(OC(C)C)cc2)n1)C([2H])([2H])[2H] [Example 204, Propan-2-yl-d7 6-(4-isopropoxyphenyl)-4-methoxypicolinate] |  |  | 70 to 72 | 1 |  |

Further compounds by falling IC50 (human ATGL; [1]), results first:

| IC50 (human ATGL; [1]) [µM] | inhibition at 50 µM (murine ATGL; [2]) [%] | melting point [°C] | IC50 (human ATGL; [3]) [µM] | inhibition at 50 µM (murine ATGL; [4]) [%] | Compound |
| --- | --- | --- | --- | --- | --- |
| 6 | 18.6 | 65 to 70 |  |  | C=CCOC(=O)c1cccc(-c2ccc(OCC)cc2)n1 [Example 32] |
| 6 | 0 | 45 to 46 |  |  | COCCOCCOc1ccc(-c2cccc(C(=O)OC(C)C)n2)cc1 [Example 15] |
| 6 |  | 136 to 143 |  |  | CC(C)OC(=O)c1cccc(-c2ccc(C#Cc3ccccc3)cc2)n1 [Example 63] |
| 6 | 0 | 56 to 62 |  |  | CCOC(=O)c1ccc(-c2cccc(C(=O)OC(C)C)n2)cc1 [Example 29] |
| 5 | 0 | 114 to 115 |  |  | CCOc1ccc(-c2cccc(C(=O)OC3CC3)n2)cc1 [Example 21] |
| 5 | 5.7 | 70 to 75 |  |  | CC(C)OC(=O)c1cccc(-c2ccc(OCC(F)(F)F)cc2)n1 [Example 38] |
| 5 | 1.8 | 75 to 77 |  |  | COCCOc1ccc(-c2cccc(C(=O)OC(C)C)n2)cc1 [Example 11] |
| 3 | 3.9 | 55 to 58 |  |  | COCc1ccc(-c2cccc(C(=O)OC(C)C)n2)cc1 [Example 19] |
| 3 | 0 | 63 to 65 |  |  | CCCCCOc1ccc(-c2cccc(C(=O)OC(C)C)n2)cc1 [Example 85] |
| 3 | 0 | 90 to 93 |  |  | CCCOc1ccc(-c2cccc(C(=O)OC(C)C)n2)cc1 [Example 27] |
| 3 | 18.1 | 46 to 47 |  |  | CCOCCOc1ccc(-c2cccc(C(=O)OC(C)C)n2)cc1 [Example 16] |
| 3 |  | 79 to 81 |  |  | CCCOc1ccc(-c2cc(OC)cc(C(=O)OC(C)C)n2)cc1 [Example 59] |
| 3 | 0 | 90 to 92 |  |  | C#CC(C)OC(=O)c1cccc(-c2ccc(CCC)cc2)n1 (stereo not shown) [Example 70] |
| 3 | 0 | 94 to 95 |  |  | CC(C)OC(=O)c1cccc(-c2ccc(Cl)cc2)n1 [Example 87] |
| 3 | 1.4 | 82 to 84 |  |  | CCc1ccc(-c2cccc(C(=O)OC(C)C)n2)cc1 [Example 55] |
| 2.5 | 0.1 | 53 to 55 |  |  | CCCCCCOc1ccc(-c2cc(OC)cc(C(=O)OC(C)C)n2)cc1 [Example 83] |
| 2 |  | 88 to 89 |  |  | CC(C)OC(=O)c1cccc(-c2ccc(CCc3ccccc3)cc2)n1 [Example 67] |
| 2 | 0 | 51 to 55 |  |  | CCCCc1ccc(-c2cccc(C(=O)OC(C)C)n2)cc1 [Example 94] |
